According to patent US10500274B2, “Methods for reducing viral load in HIV-1 infected patients” (CytoDyn Inc., priority 2008, dated 2019):
Where two headings read alike, the source gives them in different places.

Assays:
[1] = system: HIV-1JR-FL envelope-mediated membrane fusion; experiment: microbe, parasite or virus in culture; type: cell-based; design: CI90: unit not given beside the values
[2] = system: reporter viruses pseudotyped with HIV-1JR-FL envelope (U87-CD4-CCR5 cells); experiment: microbe, parasite or virus in culture; type: cell-based; details: for IC50 / IC90: Human immunodeficiency virus 1, U87/CD4/CCR5
[3] = system: reporter viruses pseudotyped with HIV-1SF162 envelope (U87-CD4-CCR5 cells); experiment: HIV-1 pseudovirus assay, SF162 envelope; type: cell-based; details: Human immunodeficiency virus 1, U87/CD4/CCR5
Description: A self-inactivating (SIN) vector was derived from the pNL4-3ΔEnv-luciferase vector (Dragic et al. 1996) by deleting 507 basepairs in the U3 region of the 3′ long terminal repeat (LTR) so as to remove the TATA box and transcription factor binding sites. The human cytomegalovirus promoter was inserted upstream of the luciferase (luc) gene to enable expression of luciferase following integration.
Reporter viruses pseudotyped with HIV-1JR-FL or HIV-15F162 envelopes were generated by cotransfection of 293T cells with the SIN vector and the appropriate pcDNA env-expressing vector as previously described (Dragic et al. 1996). U87-CD4-CCR5 cells (8,000/well; NIH AIDS Research and Reference Reagent Program) were infected with 125-375 pg of HIV-L pseudoviruses in 384-well plates in the presence or absence of inhibitor(s). Cultures were incubated for 72 h at 37° C. in DMEM containing 10% fetal bovine serum, […], 0.3 mg/mL geneticin, antibiotics, and 0.5% DMSO. Luciferase activity (relative light units or RLU) was measured using BrightGlo reagent (Promega, Madison, Wis.) according to the manufacturer's instructions.
Experimental design and data analysis were based on the combination index (CI) method (Chou et al. 1991; Chou et al. 1984). […] The mutually exclusive CI formula was used for combinations of CCR5 inhibitors, while the mutually non-exclusive formula was utilized for combinations of inhibitors to distinct targets (Chou et al. 1991). Each test was conducted 4-12 times. Synergy, additivity and antagonism are indicated by CI<1, CI=1 and CI>1, respectively.
In the Bonferroni correction, P=α/n, where n is the number of comparisons. Twenty-two synergy comparisons (11 compounds×2 CI values) were made based on data generated in the membrane fusion assay, resulting in a corrected P value of 0.0023.

HIV-1 = details: dose-dependent, treatment period of 10-14 days; cited from earlier work
CCR5 = CCR5 (Homo sapiens, UniProt P51681); details: cited from earlier work
[4] = system: HIV-1 Env-mediated fusion (HeLa-EnvJRFL with CEM NKR-CCR5 cells); experiment: HIV-1 RET cell-cell fusion assay, combination testing (Part II); details: PRO 140 in combination with the labelled inhibitor, 1:1 molar ratio
Description: Serial dilutions of small molecules were conducted in DMSO. Subsequent dilutions were conducted in medium to achieve a final DMSO concentration in the assay of 0.5%. Peptides and mAbs were diluted in PBS in the absence of DMSO.
Briefly, fluorescein octadecyl ester (F18; Molecular Probes, Eugene, Oreg.; 5 mg/ml in ethanol), was diluted 1:800 in DMEM labeling medium (DMEM; Invitrogen, Carlsbad, Calif.) with 10% fetal bovine serum (FBS; HyClone, Logan, Utah) and adjusted to an A506 of 0.34±10%. […] Both dyes were further diluted 2-fold by addition to cells in T75-cm^2 flasks. HeLa-EnvJRFL and CEM NKR-CCR5 cells were incubated overnight in F18- and R18-containing culture medium, respectively. […] The plates were then read on a fluorescence plate reader (Victor^2, Perkin Elmer, Boston, Mass.) using the excitation/emission filter combinations shown in Table 6a. […]
IC50 values were generated for all combinations as described above. Combination Index (CI) and Dose Reduction (DR) values were calculated according to the following formulas:
Combinations with CI<1 are determined to be synergistic, whereas combinations with CI>1 are determined to be antagonistic. […]
In this assay, effector cells are labeled with the F18 dye and target cells with the R18 dye. […] Drug susceptibility is measured by adding serial concentrations of drugs to target cells prior to addition of effector cells. […]

[5] = Human immunodeficiency virus 1, 1st inhibitor alone

CCR5, sequence (P51681 whole entry, the tested form may be a part): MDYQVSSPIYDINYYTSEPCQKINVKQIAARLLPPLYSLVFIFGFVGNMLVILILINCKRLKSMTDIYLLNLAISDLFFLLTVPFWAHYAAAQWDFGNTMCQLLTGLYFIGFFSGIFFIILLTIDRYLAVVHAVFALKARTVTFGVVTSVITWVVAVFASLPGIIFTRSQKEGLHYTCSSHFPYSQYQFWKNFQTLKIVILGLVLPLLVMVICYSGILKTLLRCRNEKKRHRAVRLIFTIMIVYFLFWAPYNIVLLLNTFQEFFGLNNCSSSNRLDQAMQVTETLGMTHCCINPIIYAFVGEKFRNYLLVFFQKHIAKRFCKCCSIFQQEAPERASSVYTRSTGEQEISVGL

## COc1ccnc2[nH]cc(C(=O)C(=O)N3CCN(C(=O)c4ccccc4)C[C@H]3C)c12 [BMS-378806, (R)—N-(benzoyl)-3-methyl-N′-[(4-methoxy-7-azaindol-3-yl)-oxoacetyl]-piperazine]
[1]; [5]
  IC50: 5.2 nM
  IC90: 20 nM
[2]
  IC50: 1.2 nM
  IC90: 11 nM
[3]
  IC50: 0.03 nM
  IC90: 0.42 nM

## CCCCN1C(=O)[C@@H]([C@H](O)C2CCCCC2)NC(=O)C12CCN(Cc1ccc(Oc3ccc(C(=O)O)cc3)cc1)CC2 [GW873140]
HIV-1
  mean reduction in HIV-1 RNA levels: ~1 log10

## CCO/N=C(\c1ccc(Br)cc1)C1CCN(C2(C)CCN(C(=O)c3c(C)cc[n+]([O-])c3C)CC2)CC1 [SCH-C]
HIV-1
  mean reduction in HIV-1 RNA levels: ~1 log10

## COC[C@@H](c1ccc(C(F)(F)F)cc1)N1CCN(C2(C)CCN(C(=O)c3c(C)ncnc3C)CC2)C[C@@H]1C [SCH-D, 1-[(4,6-dimethyl-5-pyrimidinyl)carbonyl]-4-[4-[2-methoxy-1(R)-4-(trifluoromethyl)phenyl]ethyl-3(S)-methyl-1-piperazinyl]-4-methylpiperidine]
[1]; SCH-D with UK-427,857 1:1, experiment depicted in FIG. 15B
  CI90: 0.73
[1]; SCH-D with UK-427,857, 1:1 fixed molar ratio, FIG. 15B, read-out: IC90 of the combination
  IC90: 31 nM
HIV-1
  mean reduction in HIV-1 RNA levels: ~1 log10

## CCCCOCCOc1ccc(-c2ccc3c(c2)/C=C(/C(=O)Nc2ccc([S+]([O-])Cc4cncn4CCC)cc2)CCCN3CC(C)C)cc1 (stereo not drawn) [TAK-652]
CCR5; Baba et al., 2005
  anti-HIV-1 activity in vitro: nanomolar range
  oral bioavailability: orally bioavailable
CCR5; TAK-779: Iizawa et al., 2003, TAK-652: single oral dose, healthy male volunteers
  tolerability: safe and well tolerated

## Cc1nnc(C(C)C)n1C1CC2CCC(C1)N2CC[C@H](NC(=O)C1CCC(F)(F)CC1)c1ccccc1 (stereo partly drawn) [UK-427,857]
[1]; [5]
  IC50: 5.3 nM
  IC90: 27 nM
[1]; Human immunodeficiency virus 1, inhibitor alone, experiment depicted in FIG. 15A
  IC90: 21 nM
[1]; Human immunodeficiency virus 1, inhibitor alone, experiment depicted in FIG. 15B
  IC90: 59 nM
[1]; Human immunodeficiency virus 1, read-out: IC50 of the combination, UK-427,857 with PRO 140, 1:1 fixed molar ratio, total concentration, FIG. 15A
  IC50: 2.1 nM
[1]; Human immunodeficiency virus 1, read-out: IC90 of the combination, UK-427,857 with PRO 140, 1:1 fixed molar ratio, FIG. 15A
  IC90: 4.6 nM
[1]; UK-427,857 with PRO 140 1:1, experiment depicted in FIG. 15A
  CI90: 0.32

## Cc1ccnc2c1NC(=O)c1cccnc1N2C1CC1 [nevirapine]
[2]
  IC50: 30 nM
  IC90: 310 nM
[3]
  IC50: 42 nM
  IC90: 280 nM

## Cc1cn([C@H]2C[C@H](N=[N+]=[N-])[C@@H](CO)O2)c(=O)[nH]c1=O [zidovudine]
[2]
  IC50: 140 nM
  IC90: 1900 nM
[3]
  IC50: 86 nM
  IC90: 2100 nM

## RANTES: CC-chemokine, natural peptide ligand of CCR5, purchased from R&D Systems
[1]; in combination with PRO 140
  CI values (50% and 90% inhibition): Similarly potent synergy
[1]; labelled 1st inhibitor with 2nd inhibitor UK-427,857, equimolar
  CI50: Similarly potent synergy
[2]; inhibitor alone
  inhibition of HIV-1 pseudovirus entry (in words): Neither TAK-779 nor RANTES mediated consistent, high-level inhibition
[4]
  Mean CT (Combination Index at IC50 value): 0.59 ± 0.08
